For 1 compound, IC50 results are on record in US9040717B2, “Pyrazole-amide compounds and pharmaceutical use thereof” (JAPAN TOBACCO INC., priority 2013, dated 2015).

Each structure is given as a SMILES string. Where only a bound is given, the exact number is not on record here.

The target of the data set is hERG (Homo sapiens (Human), UniProt Q12809). In words: hERG whole cell patch clamp test. Format: cell-based. The note with it: human, hERG-transfected HEK293 cells, pH 7.4; whole cell patch clamp. As to the method: Using human ether-a-go-go related gene (hERG)-transfected HEK293 cells (Cytomyx Limited), an influence on hERG current was examined according to the whole cell patch clamp technique. The hERG-transfected HEK293 cells were passaged using a CO2 incubator (BNA-111, TABAI ESPEC CORP.) under the set conditions of 37° C., 5% CO2, saturated humidity. Culture containers used were Collagen Type I Coated 75 cm^2 flask (4123-010, AGC TECHNO GLASS CO., Ltd.) and Collagen Type I Coated 35 mm culture dish (4000-010, AGC TECHNO GLASS CO., Ltd.). The culture medium used was E-MEM (Eagle Minimum Essential Medium (Earle's Salts, Nikken biomedical laboratory) added with 10% FCS (Fetal calf serum, BioWest, L.L.C.) and 1% MEM Non-Essential Amino Acids Solution (NEAA, Invitrogen Corporation). Geneticin for the selection of hERG gene expressing cells was added thereto to a concentration of 400 μg/mL. As the cells for the measurement, 3×10^4 hERG-transfected HEK293 cells were plated on a 35 mm culture dish 4 to 7 days before measurement of the hERG current. The culture dish produced for the measurement contained the above-mentioned culture medium without geneticin (Invitrogen Corporation).
hERG, sequence (Q12809 whole entry): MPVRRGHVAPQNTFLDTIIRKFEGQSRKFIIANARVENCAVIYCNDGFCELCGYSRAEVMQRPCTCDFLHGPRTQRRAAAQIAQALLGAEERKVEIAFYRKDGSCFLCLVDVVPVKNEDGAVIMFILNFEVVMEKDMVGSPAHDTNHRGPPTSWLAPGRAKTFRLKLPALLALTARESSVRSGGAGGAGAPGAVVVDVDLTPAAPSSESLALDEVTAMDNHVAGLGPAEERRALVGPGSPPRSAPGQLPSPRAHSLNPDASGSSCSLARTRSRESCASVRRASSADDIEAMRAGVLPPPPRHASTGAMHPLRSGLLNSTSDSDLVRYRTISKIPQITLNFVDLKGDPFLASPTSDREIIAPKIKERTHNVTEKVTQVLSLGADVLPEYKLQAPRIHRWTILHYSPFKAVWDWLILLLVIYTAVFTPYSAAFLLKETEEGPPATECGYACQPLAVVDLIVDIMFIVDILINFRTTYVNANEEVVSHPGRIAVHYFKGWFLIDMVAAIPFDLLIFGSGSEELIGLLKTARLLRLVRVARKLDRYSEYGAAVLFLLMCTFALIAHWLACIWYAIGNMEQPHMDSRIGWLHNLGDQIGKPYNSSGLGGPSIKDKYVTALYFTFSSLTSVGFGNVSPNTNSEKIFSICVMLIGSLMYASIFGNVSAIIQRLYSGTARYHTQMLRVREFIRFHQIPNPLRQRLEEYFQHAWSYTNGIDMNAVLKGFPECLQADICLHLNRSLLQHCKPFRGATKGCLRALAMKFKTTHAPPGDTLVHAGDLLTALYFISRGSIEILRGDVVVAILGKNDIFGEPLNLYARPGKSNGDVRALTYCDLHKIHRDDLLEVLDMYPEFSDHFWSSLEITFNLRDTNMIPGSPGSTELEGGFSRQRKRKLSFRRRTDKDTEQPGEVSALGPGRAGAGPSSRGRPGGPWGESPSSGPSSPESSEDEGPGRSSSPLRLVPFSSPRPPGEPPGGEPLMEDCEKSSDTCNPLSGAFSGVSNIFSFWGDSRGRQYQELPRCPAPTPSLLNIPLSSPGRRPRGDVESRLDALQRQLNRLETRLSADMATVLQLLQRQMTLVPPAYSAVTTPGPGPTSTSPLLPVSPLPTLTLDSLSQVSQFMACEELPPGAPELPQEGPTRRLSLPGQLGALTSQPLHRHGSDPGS
The highest evaluation concentration of each compound was determined from the highest concentration at which precipitation was not found in the standard extracellular fluid (NaCl: 140 mmol/L, KCl: 2.5 mmol/L, MgCl2:2 mmol/L, CaCl2: 2 mmol/L, HEPES: 10 mmol/L, glucose: 10 mmol/L (adjusted to pH 7.4 with Tris-base)). As the application method, each solution to be applied was ejected from a Y-tube having a tip diameter of about 0.25 mm, which was adjacent (about 2 mm) to the cells, and applied to the cells. The ejection rate was about 0.4 mL/min.
The experiment was performed at room temperature under a phase contrast microscope. The 35 mm culture dish plated with the cells was set on a measurement apparatus, and the standard extracellular fluid was continuously applied to the cells from the Y-tube. A glass electrode for the measurement was filled with an intracellular fluid (Potassium Gluconate: 130 mmol/L, KCl: 20 mmol/L, MgCl2: 1 mmol/L, ATP-Mg: 5 mmol/L, EGTA: 3.5 mmol/L, HEPES: 10 mmol/L (adjusted to pH 7.2 with Tris-base)). A conventional whole cell patch clamp method was applied to the cells, and the maintenance electric potential was set to −80 mV. Under a fixed electric potential, the whole cell current was amplified by an amplifier for patch clamp (AXOPATCH-200B, Axon Instruments, Inc.), and the data was loaded into a computer (IMC-P642400, Intermedical Co., Ltd.) using a data acquisition analysis software (pCLAMP 9.2, Axon Instruments, Inc.).
The measurement of the hERG current was performed in the following two steps. In both cases, the hERG current was initiated by giving a command potential (maintenance electric potential −80 mV, prepulse +20 mV, 1.5 sec, test-pulse −50 mV, 1.5 sec).
Step (1): The above-mentioned command potential was given at 0.1 Hz for 2 min.
Step (2): The above-mentioned command potential was subjected to P/3 subtraction of pCLAMP 9.2 to remove leak current. This was repeated three times and an average thereof was taken as hERG current.
Subsequent to step (1), Step (2) was performed (about 3 min), and the maximum tail current obtained by applying a test-pulse to the hERG current obtained by the method of step (2) was taken as hERG current value. Hereafter, the operations of (1) and (2) were alternately repeated until completion of the experiment and the hERG current value was measured.
Stable hERG current value was recorded three times (about 10 min), and the standard extracellular fluid was instantaneously exchanged with each application fluid. The hERG current value was measured three times (about 10 min) in the same manner during perfusion of the application fluid, and the current value obtained by the 3rd measurement was taken as hERG current value after perfusion of the application fluid. […]
(In general: The hERG channel carries a current that helps repolarise heart muscle cells.)

A word on the IC50: it is the concentration at which inhibition is half-maximal. A low value points to greater potency. Consider `NC(=O)Cn1cc(-c2cc(OCCC34CC5CC(CC(O)(C5)C3)C4)cc3c2-c2ccccc2[C@]3(O)C(F)(F)F)cn1` [Compound (A), 2-(4-{(9R)-9-Hydroxy-2-[2-(3-hydroxyadamantan-1-yl)ethoxy]-9-(trifluoromethyl)-9H-fluoren-4-yl}-1H-pyrazol-1-yl)acetamide], for which the IC50 at 10 min was greater than 10 µM.
